Consider five compounds from patent US7453555B2, “Aggregometer with near ultraviolet light source” (Bio/Data Corporation, priority 2005, dated 2008).

Several values for one entry are separate records, joined by “and”; a condition that tells them apart may be missing. Identical values can stand only once.

Holding throughout (assay type): cell-based
The test system of assay [1] is platelets (platelet rich plasma). Put plainly: PAP-8E normal aggregation test, channel to channel data. More on the design: Average % Agg.: dose or concentration left out as unconfirmed. The following applies: for Average Slope: PAP-8E 340 nM LED; for Average % Agg.: PAP-8E 340 nm LED. The procedure: This test method preferably uses a normal platelet rich plasma (PRP) that has 200,000 platelets per cubic mm, with 1 μL volume. At about 6 μm long (oval), the platelets are quite small.
The normal test volume for the PAP-8E using the UV LED's is 500 μL. Using this volume, and the 200,000 platelets per cubic mm, we can assume there are (500×200,000=) 100,000,000 platelets.
During testing the beam of radiation passes through about 25% of the PRP. The task then, is to measure how many and how fast this smaller percentage of the PRP reacts and aggregates. This is done by the measurement of the change in transmission between a platelet poor (PPP) blank and the platelet rich sample.
The channel to channel variation in the PAP-8 E is now less than 11% CV for slope reproducibility and less than 8% CV for % aggregation reproducibility.

Assay [2] deals with platelets. Put plainly: Ristocetin dilution test (factor assay), PAP-4 aggregometer with 626 nm LED. The following applies: PAP-4 626 nm LED; for 100% Avg. / 100% Slope: 100% level. From the text:
(§1) Factor assay test methods benefit from the higher sensitivity of aggregometers utilizing short-wavelength LEDs. In these methods, reference curves are developed with a standard plasma (90-120% activity of the factor) that is serially diluted (down) to an activity of 1.56% (1:64 dilution). Tests are based on the rate of change in optical density.
Table 1 below and FIGS. 4a and 4b provide test results of a factor assay test: a ristocetin dilution test using an aggregometer with a 626 nm (long-wavelength) LED.
(§2) This is a quality control test in which ristocetin/plasma are tested to select the best dilution for a lot of ristocetin reagent. The attenuation of samples was measured at 8.5 mg/ml to 11.0 mg/ml concentrations to determine a slope of each sample (see Table 1, 100% slope, 100% Avg.). The slope is known by those skilled in the art as an indicator of the rate of reaction of the ristocetin reagent. Each of the 8.5 mg/ml to 11.0 mg/ml concentration ristocetin/plasma concentrations were also respectively tested diluted to 50% (see Table 1, 50% slope, 50% Avg.). The results of Table 1 are plotted in FIGS. 4a and 4b. FIG. 4a plots the slopes for each concentration at both 100% and 50% levels. FIG. 4b plots the difference in slopes between the 100% and 50% dilution levels for each concentration. […] Such irregularity makes reliable testing and analysis decision making difficult. […]

Assay [3] has as its system platelets. Put plainly: Ristocetin dilution test (factor assay), PAP-8E aggregometer with short-wavelength LED. The following applies: for 100% Avg. / 100% Slope: 100% level. The procedure: as §1, §2
The most common use of aggregation in the United States is a test method called the Ristocetin Cofactor Assay. This assay uses standard lyophilized platelets and a plasma that contains a factor. This method uses a standard curve where the standard plasma is diluted to concentrations of 100% to 25%.

Where [4] appears, read: Ristocetin 8.5 mg/ml diluted to 50%.
[5] abbreviates: Ristocetin 9.0 mg/ml diluted to 50%.
Setting [6] is: Ristocetin 9.5 mg/ml diluted to 50%.
The mark [7] stands for this setting: Ristocetin 10.0 mg/ml diluted to 50%.
Setting [8] is: Ristocetin 10.5 mg/ml diluted to 50%.
The mark [9] stands for this setting: Ristocetin 11.0 mg/ml diluted to 50%.

Regarding `CNC[C@H](O)c1ccc(O)c(O)c1` [Epinephrine], in assay [1], the “Average Slope” value is reported as 30.5 and the “Average % Agg.” value is reported as 73.1%.

Regarding `CCCCC/C=C\C/C=C\C/C=C\C/C=C\CCCC(=O)O` [Arachidonic Acid], in assay [1], the “Average Slope” value is on record as 38.9 and the “Average % Agg.” value is on record as 73.5%.

With `Nc1ncnc2c1ncn2[C@@H]1O[C@H](COP(=O)(O)OP(=O)(O)O)[C@@H](O)[C@H]1O` [ADP], in assay [1], the “Average Slope” value turned out to be 41.3 and the “Average % Agg.” value is recorded as 72.6%.

For Collagen, in assay [1], the “Average Slope” value is 44.0 and the “Average % Agg.” value was found to be 74.9%.

As for ristocetin, the “50% Avg.” value in assay [2] (setting [4]) stood at 29.5; in assay [2] (setting [5]), 33.5; in assay [2] (setting [6]) it was 32.0; in assay [2] (setting [7]) it was 33.5; in assay [2] (setting [8]) it was 33.0; in assay [2] (setting [9]) it was 28.5. The “50% Avg.” value came out at 23.0 in assay [3] (setting [4]); 26.5 in assay [3] (setting [5]); 23.5 in assay [3] (setting [6]); 21.5 in assay [3] (setting [7]); 23.5 in assay [3] (setting [8]); 27.5 in assay [3] (setting [9]). The “50% Slope” value in assay [2] (setting [4]) is 29.0 and 30.0; in assay [2] (setting [5]), 32.0 and 35.0; in assay [2] (setting [6]) it was 33.0 and 31.0; in assay [2] (setting [7]) it was 33.0 and 34.0; in assay [2] (setting [8]) it was 31.0 and 35.0; in assay [2] (setting [9]) it was 28.0 and 29.0. In addition, the “50% Slope” value in assay [3] (setting [4]) is 22.0 and 24.0; in assay [3] (setting [5]), 28.0 and 25.0; in assay [3] (setting [6]), 24.0 and 23.0; in assay [3] (setting [7]), 22.0 and 21.0; in assay [3] (setting [8]), 21.0 and 26.0; in assay [3] (setting [9]), 29.0 and 26.0. For the same compound, the “100% Avg.” value in assay [2] (Ristocetin 8.5 mg/ml) was determined as 42.0; in assay [2] (Ristocetin 9.0 mg/ml) it was 46.5; in assay [2] (Ristocetin 9.5 mg/ml) it was 40.5; in assay [2] (Ristocetin 10.0 mg/ml) it was 43.5; in assay [2] (Ristocetin 10.5 mg/ml) it was 39.5; in assay [2] (Ristocetin 11.0 mg/ml) it was 36.5. The “100% Avg.” value is 25.5 in assay [3] (Ristocetin 8.5 mg/ml); 31.5 in assay [3] (Ristocetin 9.0 mg/ml); 31.5 in assay [3] (Ristocetin 9.5 mg/ml); 30.5 in assay [3] (Ristocetin 10.0 mg/ml); 31.5 in assay [3] (Ristocetin 10.5 mg/ml); 31.5 in assay [3] (Ristocetin 11.0 mg/ml). Also, the “100% Slope” value in assay [2] (Ristocetin 8.5 mg/ml) is 42.0; in assay [2] (Ristocetin 9.0 mg/ml), 47.0 and 46.0; in assay [2] (Ristocetin 9.5 mg/ml), 41.0 and 40.0; in assay [2] (Ristocetin 10.0 mg/ml), 41.0 and 46.0; in assay [2] (Ristocetin 10.5 mg/ml), 39.0 and 40.0; in assay [2] (Ristocetin 11.0 mg/ml) it was 41.0 and 32.0. In addition, the “100% Slope” value was 23.0 and 28.0 in assay [3] (Ristocetin 8.5 mg/ml); 32.0 and 31.0 in assay [3] (Ristocetin 9.0 mg/ml); 31.0 and 32.0 in assay [3] (Ristocetin 9.5 mg/ml); 31.0 and 30.0 in assay [3] (Ristocetin 10.0 mg/ml); 30.0 and 33.0 in assay [3] (Ristocetin 10.5 mg/ml); 30.0 and 33.0 in assay [3] (Ristocetin 11.0 mg/ml). In addition, the “Difference 100 − 50” value in assay [2] (Ristocetin 8.5 mg/ml) is 12.5; in assay [2] (Ristocetin 9.0 mg/ml) it was 13.0; in assay [2] (Ristocetin 9.5 mg/ml), 8.5; in assay [2] (Ristocetin 10.0 mg/ml) it was 10.0; in assay [2] (Ristocetin 10.5 mg/ml) it was 6.5; in assay [2] (Ristocetin 11.0 mg/ml), 8.0. Besides, the “Difference 100 − 50” value in assay [3] (Ristocetin 8.5 mg/ml) amounted to 2.5; in assay [3] (Ristocetin 9.0 mg/ml), 5.0; in assay [3] (Ristocetin 9.5 mg/ml), 8.0; in assay [3] (Ristocetin 10.0 mg/ml), 9.0; in assay [3] (Ristocetin 10.5 mg/ml), 8.0; in assay [3] (Ristocetin 11.0 mg/ml) it was 4.0.
